The structures appear in SMILES notation.

The melting point is the temperature, or range, at which the solid turns liquid. Regarding `CCOC(=O)c1cc(-c2ccc(Cl)cc2Cl)c(-c2ccc(Cl)cc2)nc1C`, the melting point came to 114 °C. The compound `CC(=O)C(C)(C)COS(=O)(=O)c1ccc(C)cc1` had a melting point of 49 to 52 °C. Under `CN(C)c1cncc(C(=NCCc2ccccc2Cl)NC#N)c1` stands 158 °C.

As to `O=C(NCC(O)CO)c1cc2c(Oc3ccc(Cl)cc3)cncc2s1` (centres undefined), the melting point lay in the range of 106 to 115 °C. Under `CCC1(CC)c2ccccc2C(CC)(CC)N1OC(COC(C)(C)C)c1ccccc1` (centres undefined) stands 85 to 86 °C; under `CNc1ccc(Cl)cc1C(=N)c1ccccc1`, 93 to 95 °C; under `CC1Cn2c(nc3c(cnn3C)c2=O)S1` (centres undefined), 178 to 179 °C. The result for `CCCCc1nc2ccnc(Cl)c2n1Cc1ccc(-c2ccccc2C#N)cc1` reads 134 °C. On to `CS(=O)(=O)On1nnc2ccccc21`, for which the melting point fell in the range of 88 to 90 °C. The result for `CC(C)CN1C(=O)N(C)C2(NC(=O)NC2=O)c2ccccc21` (centres undefined) reads 270 °C; that for `c1ccc(Cc2nc(C3CCCCC3)oc2CN2CCc3c([nH]c4ccccc34)C2)cc1`, 200 to 201 °C.

`O=c1[nH]c2cc(Cl)ccc2n(O)c1=O`: the melting point was > 300 °C. Under `O=C1C(=O)N(Cc2ccccc2F)c2ccc(S(=O)(=O)N3CC[C@H]3COc3ccccc3)cc21` stands 147 to 148 °C.

The compound `Oc1ccc2[nH]cc(C3CCN(CCCCc4c[nH]c5ccccc45)CC3)c2c1` displayed a melting point of 178 to 180 °C.

On to `CCCC1(C(=O)N(C)Cc2ccccc2)c2ccccc2-c2ccccc21`, for which the melting point fell in the range of 73 to 74 °C.

The compound `O=C(Cc1ccc(Cl)cc1)c1cccc(S(=O)(=O)N2CCCCCC2)c1` came in with a melting point of 135 to 136 °C. Under `O=C(c1ccccc1)c1cc([N+](=O)[O-])ccc1-n1nc(CCl)cc1CCl` stands 152 to 155 °C; under `CCCCOP(=O)(Cc1cc(C(C)(C)C)c(O)c(C(C)(C)C)c1)Cc1cc(C(C)(C)C)c(O)c(C(C)(C)C)c1`, 133 to 135 °C.

With `O=C(O)Cc1nn(CC(=S)Nc2cc(C(F)(F)F)ccc2Br)c(=O)c2ccccc12`, the melting point fell in the range of 176 to 177 °C. Under `CN1C(=O)N(CC(COc2ccc(-c3ccc(S(C)(=O)=O)cc3)cc2)N(O)C=O)C(=O)C1(C)C` (centres undefined) stands 174 to 175 °C. Under `Cn1c(C(F)(F)F)cc(=O)n(-c2c(F)cc(Cl)c3cc(CO)oc23)c1=O` stands 198 to 199 °C. Under `O=S(=O)(Nc1ccc(Cl)cc1I)c1ccc2ncsc2c1` stands 162 °C; under `CCOC(=O)C(CC)(CC)CCCS(N)(=O)=O`, 66 to 67 °C; under `O=C1c2c(O)cncc2C(=O)c2c(Cl)ccc(F)c21`, 227 to 228 °C. `CC(=O)NCC1CC(c2ccc(-n3ccnc3)c(F)c2)=NO1` (centres undefined) yielded a melting point of 155 to 156 °C.

In the case of `CC(=O)OC(c1nc(C)c(C)s1)(c1nc(C)c(C)s1)C(F)(F)F`, the melting point fell in the range of 163 to 164 °C.

Regarding `CC(=O)OC1CSC(Oc2cccc(-c3cccc(Cl)n3)c2)C(OC(C)=O)C1OC(C)=O` (centres undefined), the melting point was 186 to 189 °C. Under `CCCN1CCN(c2ncc3c(=O)c(C(=O)O)cn(CC)c3n2)CC1` stands 149 °C; under `C=CCOC(=O)c1ccc(O)c(C23CC4CC(CC(C4)C2)C3)c1F`, 219 to 222 °C. The result for `Cn1ccnc1C1(CCCCc2ccc(N3C(=O)c4ccccc4C3=O)cc2)c2ccccc2-c2ccccc21` reads 76 to 80 °C. Under `C=CCCC(=O)Nc1ccccc1` stands 93 to 94 °C. `COc1cc(C)cc2nc(SCc3ccccc3)nn12` yielded a melting point of 85 to 87 °C. The result for `O=C(O)c1cc2c(c(O)c1Br)OCO2` reads 196 to 205 °C. Under `CCCCN1C(=O)NC(Cc2ccc(C#N)cc2)C1=O` (centres undefined) stands 136 °C. Under `CC(NC=O)c1ccc(Nc2nccc(-c3cccnc3)n2)cc1` (centres undefined) stands 118 to 121 °C; under `Cn1nc(C2CCN(C#N)CC2)c2ccc(F)cc21`, 133 to 136 °C. Regarding `CCCC12CCC3C4=C(CCC3C1CCC2O)CC(OC)=CC4` (centres undefined), the melting point was 153 to 156 °C. Compound `COc1cc2c(cc1OC)=C1C(C#N)SC(=N)N1CC=2` (centres undefined) displayed a melting point of 229 to 230 °C. As to `CC(C)(C#N)ON1C(C)(C)CC(OC(=O)c2ccccc2)CC1(C)C`, the melting point is 128 to 129 °C. The result for `CC(=O)c1cccc(-c2cc3c4cc(C)ccc4[nH]c3n(C)c2=O)c1` reads 258 to 260 °C; that for `O=C(Nc1ccc([N+](=O)[O-])cc1)c1ccccc1Br`, 200 to 202 °C; that for `CC(=N)Nc1cccc(Br)c1`, 208 to 210 °C.

With `COc1ccc(-c2coc3ccc(-c4nnc(SCc5cccc(F)c5)o4)cc23)cc1`, the melting point was in the range of 146 to 147 °C. Under `CCCCCNC(=O)c1cnc(N2CCN(C(=O)c3ccccc3C(F)(F)F)CC2)s1` stands 92 to 94 °C; under `O=C1Nc2ccc(C(F)(F)F)cc2C1c1ncnc2nn(C3CCCC3)cc12` (centres undefined), 292 to 293 °C; under `CCOC(=O)C1COc2c(C(=O)c3ccccc3)cc(Br)cc21` (centres undefined), 100 to 101 °C. Under `Clc1cc(Cl)c2oc(-c3ccc(C=Cc4ccc(-c5ccccc5)cc4)cc3)cc2c1` stands 258 to 260 °C; under `CCOCCNc1nc(S)nc(N[C@@H](C)c2ccccc2)n1`, 53 °C; under `N#Cc1cc(C(Cl)(Cl)Cl)ccc1Cl`, 66 to 68 °C.

`CC(C)(C)OC(=O)[C@@H]1CCCN1C(=O)Cl` registered a melting point of 89 to 92 °C. The result for `O=C(O)c1ccccc1OCCNC(=O)C1Cc2ccccc2N1S(=O)(=O)c1ccc(-c2cccc(C(F)(F)F)c2)cc1` (centres undefined) reads 70 °C. Under `COc1ccc(Cl)cc1C(=O)NCCc1ccc(I)c(S(=O)(=O)N=CN(C)C)c1` stands 183 to 186 °C; under `CC(=O)NC(Cc1ccc(Cl)c(Cl)c1)C(=O)CCc1cc(C(F)(F)F)cc(C(F)(F)F)c1` (centres undefined), 124 to 126 °C; under `COc1ccc(Nc2nc(NC3CCCCCC3)nc(N(C)C3CCN(C)CC3)n2)cc1Cl`, 173 to 176 °C. The result for `COC(=O)c1ccc(C(=O)N2CCN(c3ncccc3NC(C)C)CC2)cc1` reads 116 to 118 °C. Regarding `Cc1oc(-c2ccccc2)nc1COc1cc(F)cc(CN(O)C(N)=O)c1`, the melting point is 157 to 158 °C. `CCCNC(=O)C(C)Cc1ccc2cccc(Cc3ccc(C(=O)NS(=O)(=O)c4ccccc4C)cc3OC)c2c1` (centres undefined): the melting point was in the range of 210 to 212 °C. Under `COC(=O)COc1ccc(C=O)cc1` stands 39 to 41 °C.

On to `Cc1[nH]c2ccc(OCCCCBr)cc2c1C`, for which the melting point was 119 to 120 °C. The result for `CCn1nc(OCCCc2ccc(OCCOC)cc2OCc2ccc(C(F)(F)F)cc2)cc1CCC(=O)O` reads 112 to 113 °C; that for `CC(C)(CO)NC(=O)c1cc(F)c(F)cc1F`, 114 to 116 °C; that for `N#CCc1c(-c2ccccc2)[nH]c2nccnc12`, 247 to 248 °C. Compound `CCCCCOc1ccc(CCOc2ccc(/C=C(\OCC)C(=O)O)cc2OCCCC)cc1F` displayed a melting point of 102 °C. Under `CC(C)CC(=O)Nc1cc(-c2ccnc3c(C(=O)c4cccs4)cnn23)ccc1Cl` stands 172 to 175 °C. Under `Nc1nc2ccccc2c2c1ncn2CCCCNC(=O)c1ccc(Oc2ccccc2)cc1` stands 90.5 to 91.5 °C; under `C#CCOC(=O)C1=C(C)NN=C(CC)C1c1cccc([N+](=O)[O-])c1` (centres undefined), 70 °C. Under `COc1ccc(C(=O)c2cccc(OC)c2)cc1` stands 53 to 55 °C; under `NCc1cccc(OCCC2Oc3ccccc3N(Cc3cccc(Cl)c3)C2=O)c1` (centres undefined), 124 to 129 °C. Consider `O=C(O)c1cnc2cc(C3CCCCC3)ccc2c1O`, for which the melting point was in the range of 241 to 243 °C. The result for `Oc1ncnc2cnc(NC3CC3)nc12` reads > 240 °C; that for `COc1c(C)cnc(CSc2nc3cc4c(cc3[nH]2)OC(F)C(F)(F)O4)c1C` (centres undefined), 138 to 140 °C; that for `Cc1nc2cc3c(cc2[nH]1)NC(=O)C3(C)C`, > 300 °C. The result for `CC(=NO)c1ccc(Nc2c3ccccc3nc3occc23)cc1` reads 264 to 265 °C. The result for `Cc1nc2ccccc2c(=O)n1NC(=O)Nc1ccc(Cl)cc1` reads 228 to 230 °C; that for `O=C1NC(=O)c2c1c(-c1ccccc1Cl)cc1oc3cc(CCCCO)c(O)cc3c21`, 256 to 259 °C. Consider `CCOC(=O)C1=C(C)NC(c2ccc([N+](=O)[O-])cc2)=C(C(=O)OCC)C1c1cccc([N+](=O)[O-])c1` (centres undefined), for which the melting point lay in the range of 176 to 177 °C. Under `CCSc1ccc(C(=O)O)nc1SCC` stands 112 to 113 °C; under `CCOc1ccc2c(c1)c(-c1ccc3c(c1)OCO3)c(C(=O)OC)c(=O)n2Cc1ccccc1OC`, 157 to 158 °C.

Compound `COc1nc(N)nn1C` returned a melting point of 177 to 180 °C.

`O=C/C=C/C=C/c1ccc(OCC(F)(F)C(F)F)nc1` gave a melting point of 88 to 89 °C. The result for `CC1=NN=C(c2ccc([N+](=O)[O-])cc2)c2ccc(Cl)cc2C1` reads 227 to 228 °C; that for `COC(=O)CNC(=O)c1ncccc1S`, 178 to 179 °C; that for `CS(=O)(=O)c1ccc(-c2cnn(CC(F)(F)F)c(=O)c2Cc2cccc(F)c2)cc1`, 58 to 62 °C.

`Cc1ccc(S(=O)(=O)N(CCN(CC(=O)O)S(=O)(=O)c2ccc(C)cc2)CCN(CC(=O)O)S(=O)(=O)c2ccc(C)cc2)cc1`: the melting point lay within 177 to 180 °C. The result for `COc1ccc(C2=NN(C)C(=O)[C@H]3CCCC[C@@H]23)cc1OC` (relative stereo) reads 110 to 112 °C. `Cc1ccc(O[C@H]2CCN(C(=O)OCc3ccccc3)C[C@H]2O)cc1C` (relative stereo) came in with a melting point of 140 to 143 °C. For `O=C(Nc1cccnc1)N1CCN(c2cncc(-c3ccc(F)cc3F)n2)CC1`, the melting point is 155 to 156 °C. The result for `CCOC(=O)C(=O)Nc1cc(C#N)ccc1O` reads 295 °C; that for `CS(=O)(=O)c1c(Cl)nc(Cl)nc1Cl`, 146 to 147 °C.

For the origin of these results see a melting point compilation (Tetko et al.; mined from patent text by program, amines drawn as free bases though some values may be those of a salt).
